The source of these data is PubChem BioAssay (NCI).

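Interpolation was linear, between the two tested concentrations surrounding the appropriate level; five concentrations were tested over 48 hours in 96-well plates. GI50 marks 50% less growth. The concentration for full growth arrest is given as TGI.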 A value given as a limit tells only on which side of the number the result lay.

Common to all, as to experiment: NCI-60 cell line screen, 48 h
Test [1] concerns SK-MEL-2 melanoma.
In test [2] the test system is COLO 205 colon.
The subject of test [3] is HCT-15 colon.
In test [4] the test system is BT-549 breast.
The subject of test [5] is TK-10 renal.
In test [6] the test system is SNB-19 CNS.
Test [7] relates to HOP-92 NSCLC.
For test [8], the system named is SNB-75 CNS.
Test [9] has as its system HCT-116 colon.
Test [10] deals with UACC-257 melanoma.

For `c1ccc2[nH]c(-c3ccc(Nc4nc(N5CCCCC5)nc(N5CCOCC5)n4)cc3)nc2c1`, the GI50 in test [1] is 2.34 µM; in test [2], 1.86 µM; in test [3] it was 1.88 µM; in [4], 2.07 µM; in [5], 3.21 µM; in test [6] it was 3.73 µM. Moreover, the GI50 in [7] was 1.99 µM; in [8] it was 2.1 µM; in test [9] it was 1.91 µM. Further, the TGI in test [1] came to 5.36 µM; in [2], 3.92 µM; in [3], 4.38 µM; in [4], 5.2 µM; in [5] it was 9.26 µM; in [6], 81.9 µM. Besides, the figures for the TGI in [7], in [8] and in test [9] were 4.32 µM, 16.9 µM and 3.87 µM, respectively.

Regarding `CC1(C)CC2C(=O)c3ccccc3NC2c2ccccc21` (configuration not stated), the TGI in test [2] was 22.1 µM; in test [3], over 100 µM; in [4], over 100 µM; in test [5] it was over 100 µM; in test [6], over 100 µM; in test [10], over 100 µM. Besides, the TGI in test [7], in [8] and in test [9] was over 100 µM in each case.

`CCCCn1c(-c2ccc(C(=O)O/N=C(\N)c3ccc4c(c3)OCO4)cc2)nc(-c2ccccc2)c1-c1ccccc1`: the GI50 in test [1] is 4.19 µM; in [2], 2.69 µM; in test [3], 2.63 µM; in test [4], 2.61 µM; in [6] it was 3.04 µM; in test [10] it was 6.43 µM. Besides, the GI50 was 1.53 µM in test [8] and 1.7 µM in test [9]. For the same compound, the TGI in test [1] was over 100 µM; in test [2] it was 11 µM; in test [3], over 100 µM; in test [4], 7.84 µM; in test [6], 43.6 µM; in test [10], over 100 µM. Further, the TGI in test [8] was found to be 3.88 µM; in test [9], 3.66 µM.

As for `C[C@H]1CCCC(O)C(O)[C@@H]2C[C@H](O[Si](C)(C)C(C)(C)C)C[C@H]2[C@H](O[Si](C)(C)C(C)(C)C)C(O)C(O)C(=O)O1` (some centres not stated), the GI50 in test [1] was 34.8 µM; in test [2], over 100 µM; in [4], 20.1 µM; in test [5], 17.2 µM; in [6] it was 15.9 µM; in test [10], 35.2 µM. In addition, the GI50 was 4.3 µM in test [8] and 28.3 µM in test [9]. Moreover, the TGI in [1] was over 100 µM; in test [2], over 100 µM; in test [4] it was over 100 µM; in test [5], 43.2 µM; in test [6] it was 46.7 µM; in test [10] it was over 100 µM. Moreover, the TGI in [8] was 18.1 µM; in test [9] it was over 100 µM.

As for `C(=N\Nc1nnn(Cc2ccccc2)n1)/c1ccccc1`, the GI50 is 1.02 µM in test [1]; 3.2 µM in [2]; 1.42 µM in [3]; 11.5 µM in [4]; 20 µM in test [5]; 9.95 µM in test [6]. Besides, the GI50 was 3.67 µM in test [8] and 3.82 µM in test [9]. In addition, the TGI was 6.28 µM in test [1]; over 59.2 µM in [2]; over 100 µM in test [3]; over 100 µM in test [4]; over 100 µM in test [5]; 64.8 µM in test [6]. Also, the TGI in test [10] is over 100 µM; in [8], 36.8 µM; in test [9], over 73.3 µM.

For `CN(C)CCNC(=O)Cn1ccc(=O)c2c([N+](=O)[O-])cccc21`, the TGI in test [1], in [2], in test [3], in [4], in test [5] and in [6] was over 100 µM each time. The TGI in [10], in [8] and in test [9] was over 100 µM in each case.

Regarding `Cc1nc(C(N)=S)sc1C(=O)/C=C/c1c(O)ccc2ccccc12`, the TGI in test [1], in [2], in [3], in [5], in [6] and in test [10] was over 100 µM throughout. Further, the TGI in [7], in [8] and in test [9] was over 100 µM in each case.

In the case of `O=C(N/N=C/c1cccc(F)c1)c1ccncc1`, the TGI in test [1], in test [2], in [3], in test [5], in test [6] and in [10] was over 100 µM throughout. For the same compound, the TGI in test [7], in [8] and in test [9] was over 100 µM throughout.

With `COc1ccc(C(=O)NCCN(C)C)c2nc3ccccc3nc12`, the TGI was 11.8 µM in test [1]; over 26.1 µM in test [2]; 24.4 µM in test [3]; 76.7 µM in test [5]; over 53 µM in test [6]; 13 µM in test [10]. The TGI is over 27.4 µM in test [7], 78 µM in test [8] and 12.8 µM in test [9].

For `O=c1oc2ccccc2[n+]([O-])c1-c1ccccc1`, the TGI in test [1], in test [2], in test [3], in [5], in test [6] and in test [10] was over 100 µM in each case. The TGI in test [7], in test [8] and in test [9] was over 100 µM in each case.

As to `NC(=S)NN/C=C(\C=Nc1ccccc1)[N+](=O)[O-]`, the TGI in test [1], in test [2], in [3], in test [5], in test [6] and in test [10] was over 100 µM each time. Besides, the TGI in [7], in test [8] and in test [9] was over 100 µM each time.

With `O=C(O)c1ccccc1/C=N/N=C1c2ccccc2-c2ccccc21`, the TGI in test [1], in test [2], in test [3], in [4], in test [5] and in [6] was over 100 µM each time. For the same compound, the TGI in [10], in test [7] and in test [9] was over 100 µM each time.

On to `CCCCCCCCCCCCCCCC[N+]1(C)CCOCC1`, for which the GI50 in test [2] was 1.15 µM; in test [3] it was 2.55 µM; in test [4], 2.2 µM; in test [5], 1.86 µM; in [10] it was 4 µM; in test [7] it was 0.499 µM. Further, the values for the GI50 in [8] and in test [9] were 0.868 µM and 1.59 µM, respectively. The TGI stood at 2.42 µM in [2]; 7.99 µM in test [3]; 4.7 µM in test [4]; 4.17 µM in test [5]; 17.2 µM in test [10]; 2.64 µM in test [7]. Moreover, the TGI in [8] is 2.46 µM; in [9], 3.87 µM.

As for `COc1ccc(OC)c(Cn2cc3c(c2-c2ccccc2)CCc2cnoc2-3)c1`, the GI50 in test [1] was 3.71 µM; in [2] it was 6.31 µM; in test [3], 4 µM; in [5], 8.01 µM; in test [6], 9.43 µM; in test [10], 30.7 µM. The GI50 in [7] was 5.26 µM; in test [8] it was 2.89 µM; in test [9], 4.04 µM. Also, the TGI in test [1] is 59.2 µM; in test [2] it was over 100 µM; in [3], over 100 µM; in test [5], over 100 µM; in [6], over 100 µM; in test [10], over 100 µM. Further, the TGI is over 100 µM in test [7], 9.9 µM in test [8] and over 100 µM in test [9].

With `O=C(N[C@@H](C[Se][Se]C[C@H](NC(=O)c1ccc(Br)cc1F)C(=O)O)C(=O)O)c1ccc(Br)cc1F`, the GI50 in test [2], in test [3], in test [4], in test [5], in test [6] and in test [10] was over 100 µM throughout. Further, the GI50 in [7], in test [8] and in test [9] was over 100 µM each time. Further, the TGI in test [2], in [3], in test [4], in test [5], in test [6] and in [10] was over 100 µM throughout. In addition, the TGI in test [7], in test [8] and in [9] was over 100 µM in each case.

Regarding `O=C(/C=C/c1ccccc1)c1ccc(NCc2nc3ccccc3[nH]2)cc1`, the TGI in test [1] is 25.5 µM; in test [2], 11.1 µM; in test [3], 15.9 µM; in test [5], 24 µM; in test [6] it was 15.9 µM; in test [10], 13.2 µM. The TGI in test [7] worked out at 22.5 µM; in [8] it was 20.9 µM; in test [9] it was 13 µM.

In the case of `Cc1c2ccccc2cc2ccc3oc([N+](=O)[O-])cc3c12`, the TGI in test [1], in test [2], in test [3], in test [5], in [6] and in test [10] was over 100 µM each time. Further, the TGI in [7], in test [8] and in test [9] was over 100 µM each time.

`O=C(O)[C@@H](Cc1ccc2ccccc2c1)NC(=O)n1c2ccccc2c2ccccc21`: the GI50 in test [1] is 4.19 µM; in [2], 2.55 µM; in [3] it was 3.29 µM; in [4], 2.85 µM; in [5], 14.9 µM; in [6], 3.57 µM. In addition, the GI50 was 11.9 µM in [10], 1.33 µM in test [7] and 2.32 µM in [9]. The TGI in test [1] is 43.3 µM; in test [2], 5.29 µM; in test [3], 28.6 µM; in test [4], 14.2 µM; in test [5], over 100 µM; in test [6], 17 µM. For the same compound, the TGI in test [10] is over 100 µM; in test [7], 7.74 µM; in test [9] it was 11.8 µM.

Consider `COc1cc2c(cc1OC)C(C(=O)c1cccc(OC)c1OC)C(=O)N(C)CC2` (configuration not stated), for which the TGI in test [1], in test [2], in test [3], in [5], in test [6] and in test [10] was over 100 µM throughout. In addition, the TGI in [7], in test [8] and in test [9] was over 100 µM each time.

For the compound `Oc1ccccc1-c1nn(CNc2ccccc2Cl)c(=S)o1`, the GI50 in test [1] is over 100 µM; in test [2], 27 µM; in [3], 17.9 µM; in test [4], over 100 µM; in test [5], 42.2 µM; in test [6], over 100 µM. The GI50 in [10] was over 100 µM; in test [7], 16.4 µM; in test [9] it was 29.8 µM. The TGI in test [1] was over 100 µM; in test [2], over 100 µM; in [3], 38.7 µM; in test [4] it was over 100 µM; in test [5] it was over 100 µM; in test [6] it was over 100 µM. The TGI in test [10] is over 100 µM; in test [7] it was 66.2 µM; in test [9], over 100 µM.

As for `O=C1CCCCN1CCCCC#Cc1cccc(C#Cc2cccnc2)c1`, the GI50 was 6.88 µM in [2]; 3.96 µM in test [3]; 18.6 µM in [4]; 49.8 µM in [5]; 13 µM in test [6]; 17.7 µM in test [10]. Further, the values for the GI50 in [7], in test [8] and in test [9] were 19.2 µM, 4.05 µM and 4.67 µM, respectively. The TGI was 21 µM in test [2]; 17.7 µM in [3]; 74.7 µM in test [4]; over 100 µM in [5]; 27.2 µM in [6]; 49.6 µM in test [10]. Further, the TGI is over 100 µM in test [7], 20.4 µM in test [8] and 18.4 µM in [9].
